Reference: PubChem BioAssay AID1963836 (Molecular Pharmacology Branch, DTP, NCI, 2024)
Values joined by “and” are separate entries in the source; they are usually repeats but may differ in a detail not shown here. Equal values may be shown once.

Test system: 857933-349-R-J2-PDC complex spheroid viability
Experiment: Anticancer human tumor 857933-349-R-J2-PDC patient-derived colon adenocarcinoma cell line growth inhibition [POLQ]
Settings: for viability, T/C: stronger effect = lower value
Experimental: Multicellular complex tumor spheroid response to Polymerase (POL) inhibitors (novobiocin, ART-558, RP6685) in combination with a variety of drugs and investigational agents in selected tumor cell lines
The POL inhibitors (novobiocin, ART-558, and RP6685) were evaluated both individually and in combination with standard of care and investigational anticancer small molecules within a complex spheroid model of solid tumors. . Complex spheroids include a stromal component modeled by human endothelial cells (HUVEC) and fibroblasts modeled by human mesenchymal stem cells (MSCs). The concentration ranges selected for each drug and investigational agent were based upon clinically achievable concentrations if the clinical Cmax of the agent was known.
Compounds. The drugs and investigational agents: novobiocin (NSC847541), ART-558 (NSC835418), RP-6685 (NSC848927), peposertib (NSC802822), ceralasertib (NSC780249), elimusertib (NSC800525), camonsertib (NSC841442), AZD-1390 (NSC803789), olaparib (NSC753686), talazoparib (NSC767125), rucaparib (NSC756644), sotorasib (NSC818433), MRTX-1133 (NSC836407), SN-38 (NSC673596), topotecan (NSC609699), epotoside (NSC141540), doxorubicin (NSC123127), gemcitabine (NSC613327), 5-fluorouracil (NSC19893), paclitaxel (NSC125973), vemurafenib (NSC761431), MSA-2 (NSC828583), SN-011 (NSC837082), adavosertib (NSC754352), prexasertib (NSC758257), carboplatin (NSC241240) and oxaliplatin (NSC266046), were obtained from the National Cancer Institute (NCI) Developmental Therapeutics Program Chemical Repository (21). The FDA-approved anticancer drug set is available from the Developmental Therapeutics Program at https://dtp.cancer.gov/organization/dscb/obtaining/. […] The stock solutions were prepared in dimethyl sulfoxide (DMSO, Sigma-Aldrich, St. Louis, MO, cat. D2650), except for the platinum compounds which were prepared in saline (Quality Biological, Gaithersburg, MD, cat. 114-055-101), at 800-fold the tested concentration and stored at -70 degrees C prior to their use. All drugs and investigational agents were tested over a range starting from a high concentration at or near the clinical Cmax and decreasing in half-log increments. If the clinical Cmax for an agent had not been determined, the highest concentration tested was 10 microM, except for SN-38, which was tested at a high concentration of 1 microM.
Cell Culture. All cells were maintained in an incubator at 37 degrees C and 5% CO2 with 95% humidity. The PDC lines were cultured according to standard operating procedures established by the NCI PDMR (https://pdmr.cancer.gov). Table 3 of the manuscript, lists the cell lines along with the number of the three cell types plated to form the mct-spheroids and media for tumor cell growth. After thawing, all PDC lines, except 997537-175-T-J1-PDC and 415267-285-R-J2-PDC, were cultured in Matrigel-coated flasks prepared with a working solution of 1X Ham's F-12 nutrient mix, without supplementation (Thermo Fisher Scientific, cat. 11765054), 100 U/mL penicillin-streptomycin (Thermo Fisher Scientific, cat. 15140122), and 2.5% Matrigel (Corning Inc., Corning, NY, cat. 354248) for the first three passages. The two PDC lines 997537-175-T-J1-PDC and 415267-285-R-J2-PDC were cultured on uncoated flasks. The 857933-349-R-J2-PDC line was cultured in 6C/Colon 1B media containing advanced DMEM/F-12 (Thermo Fisher Scientific, cat. 12634028), 10 mM HEPES (Thermo Fisher Scientific, cat. 15630080), 1X GlutaMAX supplement (Thermo Fisher Scientific, cat. 35050061), 0.1 mg/mL primocin (InvivoGen, San Diego, CA, cat. ant-pm-2), 10% defined fetal bovine serum, heat inactivated (HyClone Laboratories Inc., Logan, UT, cat. SH30070.03HI), 50% L-WRN conditioned media (ATCC, cat. CRL-3276), 1.25 mM N-Acetyl-L-cysteine (Sigma-Aldrich, cat. A9165), 10 mM nicotinamide (Sigma-Aldrich, cat. N0636), 1X B-27 supplement (Thermo Fisher Scientific, cat. 17504044), 1X N-2 supplement (Thermo Fisher Scientific, cat. […]
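Also: spheroids exposed to compounds for seven days before readout.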

Question: With Nc1ccc(C#CCN(C(=O)Cc2ncc(C(F)(F)F)cc2C(F)(F)F)c2ccc(F)cc2)nn1 as the molecule, how does the viability, T/C (compound 0.0316 µM) read?
Answer: Its viability, T/C is 97.7% [middle of 13 runs].

Question: And the viability, T/C (compound 0.1 µM)?
Answer: The viability, T/C was 104% [middle of 13 runs].

Question: And the viability, T/C (compound 0.316 µM)?
Answer: Its viability, T/C is 102% [middle of 13 runs].

Question: What about the viability, T/C (compound 1 µM) of the same molecule?
Answer: Its viability, T/C is 99.5% [middle of 13 runs].

Question: And the viability, T/C (compound 10 µM)?
Answer: The viability, T/C was 99.5% [middle of 13 runs].

Question: What about the IC50 (compound alone, run of 01/19/2024) of the same molecule?
Answer: Its IC50 is > 10 µM.

Question: What does the source list for CC1COCCN1c1cc(C2(S(C)(=N)=O)CC2)nc(-c2ccnc3[nH]ccc23)n1 (configuration not stated) + Cc1cccc(N(C)C(=O)C2C(O)CCN2c2nc(C)cc(C(F)(F)F)c2C#N)c1?
Answer: IC50 (curve of first compound, second compound 0.0316 µM): 3.21 µM; IC50 (curve of first compound, second compound 0.1 µM): 3.88 µM; IC50 (curve of first compound, second compound 0.316 µM): 2.71 µM; IC50 (curve of first compound, second compound 1 µM): 4.38 µM; IC50 (curve of first compound, second compound 3.16 µM): 5.54 µM; IC50 (curve of first compound, second compound 10 µM): 4.77 µM; viability, T/C (second compound 0.0316 µM, first compound 0.0316 µM): 97.9%; viability, T/C (second compound 0.0316 µM, first compound 0.1 µM): 105%; viability, T/C (second compound 0.0316 µM, first compound 0.316 µM): 95%; viability, T/C (second compound 0.0316 µM, first compound 1 µM): 78.2%; viability, T/C (second compound 0.0316 µM, first compound 3.16 µM): 50.4%; viability, T/C (second compound 0.0316 µM, first compound 10 µM): 36.4%; viability, T/C (second compound 0.1 µM, first compound 0.0316 µM): 88.6%; viability, T/C (second compound 0.1 µM, first compound 0.1 µM): 112%; viability, T/C (second compound 0.1 µM, first compound 0.316 µM): 87.4%; viability, T/C (second compound 0.1 µM, first compound 1 µM): 76.3%; viability, T/C (second compound 0.1 µM, first compound 3.16 µM): 55.2%; viability, T/C (second compound 0.1 µM, first compound 10 µM): 32.5%; viability, T/C (second compound 0.316 µM, first compound 0.0316 µM): 75%; viability, T/C (second compound 0.316 µM, first compound 0.1 µM): 81.5%; viability, T/C (second compound 0.316 µM, first compound 0.316 µM): 101%; viability, T/C (second compound 0.316 µM, first compound 1 µM): 69.8%; viability, T/C (second compound 0.316 µM, first compound 3.16 µM): 48.7%; viability, T/C (second compound 0.316 µM, first compound 10 µM): 35.4%; viability, T/C (second compound 1 µM, first compound 0.0316 µM): 92.9%; viability, T/C (second compound 1 µM, first compound 0.1 µM): 91.7%; viability, T/C (second compound 1 µM, first compound 0.316 µM): 102%; viability, T/C (second compound 1 µM, first compound 1 µM): 74.8%; viability, T/C (second compound 1 µM, first compound 3.16 µM): 57.4%; viability, T/C (second compound 1 µM, first compound 10 µM): 36.6%; viability, T/C (second compound 3.16 µM, first compound 0.0316 µM): 95.5%; viability, T/C (second compound 3.16 µM, first compound 0.1 µM): 98.2%; viability, T/C (second compound 3.16 µM, first compound 0.316 µM): 84.4%; viability, T/C (second compound 3.16 µM, first compound 1 µM): 78.8%; viability, T/C (second compound 3.16 µM, first compound 3.16 µM): 52.3%; viability, T/C (second compound 3.16 µM, first compound 10 µM): 45.8%; viability, T/C (second compound 10 µM, first compound 0.0316 µM): 80.1%; viability, T/C (second compound 10 µM, first compound 0.1 µM): 84.7%; viability, T/C (second compound 10 µM, first compound 0.316 µM): 88.6%; viability, T/C (second compound 10 µM, first compound 1 µM): 72.5%; viability, T/C (second compound 10 µM, first compound 3.16 µM): 57.4%; viability, T/C (second compound 10 µM, first compound 10 µM): 38.2%

Question: How did the viability, T/C (compound 0.00316 µM) turn out when C=CCn1c(=O)c2cnc(Nc3ccc(N4CCN(C)CC4)cc3)nc2n1-c1cccc(C(C)(C)O)n1 was run?
Answer: Its viability, T/C is 99.5% and 94.6% and 95.5%.

Question: What about the viability, T/C (compound 0.01 µM) of the same molecule?
Answer: The viability, T/C was 72.9% and 104% and 93.5%.

Question: What about the viability, T/C (compound 0.0316 µM) of the same molecule?
Answer: Its viability, T/C is 84.6% and 98.7% and 93.5%.

Question: And the viability, T/C (compound 0.1 µM)?
Answer: Its viability, T/C is 94.9% and 107% and 102%.

Question: And the viability, T/C (compound 0.316 µM)?
Answer: Its viability, T/C is 109% and 102% (2×).

Question: What about the viability, T/C (compound 1 µM) of the same molecule?
Answer: The viability, T/C was 66.4% and 73.5% and 82.9%.

Question: And the IC50 (curve of compound)?
Answer: The IC50 was > 1 µM.

Question: O=C(Nc1ccc(O)c(NS(=O)(=O)c2ccc(F)cc2)c1)c1ccc(-c2ccccc2)cc1 was tested. Which viability, T/C (compound 0.0316 µM) did it give?
Answer: The viability, T/C was 93.1% and 99.4% and 97.2%.

Question: And the viability, T/C (compound 0.1 µM)?
Answer: The viability, T/C was 97.3% and 105% and 102%.

Question: What about the viability, T/C (compound 0.316 µM) of the same molecule?
Answer: The viability, T/C was 82.5% and 107% and 105%.

Question: And the viability, T/C (compound 1 µM)?
Answer: The viability, T/C was 94.7% and 94% and 82.6%.

Question: What about the viability, T/C (compound 3.16 µM) of the same molecule?
Answer: The viability, T/C was 95.3% and 86.2% and 100%.

Question: And the viability, T/C (compound 10 µM)?
Answer: The viability, T/C was 77.8% and 88.1% and 78.2%.

Question: And the IC50 (curve of compound)?
Answer: The IC50 was > 10 µM.
